Publication PMC11679793, “Structure-Activity Relationship Study of Majusculamide D: Overcoming Metabolic Instability and Severe Toxicity with a Fluoro Analogue” (Marine Drugs, 2024)

Tests used:
PANC-1 xenograft tumor = test system: PANC-1 xenograft tumor
Protocol: Furthermore, a xenografted murine subcutaneous tumor model was employed to evaluate the effects of majusculamide D and the optimized analogues 1c and 1n (Figure 1B). PANC1-bearing BALB/c nude mice were separated randomly, with a total of six mice in each group. Gemcitabine was chosen as the positive drug; the mice were then administered intravenous doses of 1c (5 mg/kg), 1n (5 mg/kg), 1a (5 mg/kg), and gemcitabine (20 mg/kg) every other day for 24 days.
A total of 4 × 10^6 PANC-1 cells suspended in 100 μL PBS were subcutaneously injected into the right shoulder region of BALB/c nude mice. When the tumor volume reached approximately 200 mm^3, the mice were euthanized, and the tumor tissues were harvested and designated as F1 generation. Tumor tissues were then cut into small cubes measuring approximately 3 × 3 × 3 mm, which were implanted into new BALB/c mice to propagate the tumors. This procedure was repeated to obtain the F2 generation of tumors. Finally, mice bearing F3 generation transplant tumors were used for drug treatment experiments. When the tumor volume reached approximately 80–100 mm^3, the mice were randomly divided into five groups (n = 6): control group, 5 mg/kg compound 1a group, 5 mg/kg compound 1c group, 5 mg/kg compound 1n group, and 20 mg/kg gemcitabine group. The compounds 1a, 1c, and 1n were dissolved in DMSO and then diluted with 0.9% physiological saline to achieve a final concentration of 0.5 mg/mL as the dosing concentration. Gemcitabine was dissolved directly in 0.9% saline to achieve a final concentration of 2 mg/mL as the dosing concentration. The compounds were administered intravenously every two days, alternating between the left and right tail veins to minimize vein damage. Injections were performed using ultra-fine syringes (30G needles) to reduce stress and ensure consistent delivery. The body weight and tumor volume of the mice were measured every four days. On day 24, the mice were euthanized, and the tumor weights were recorded. Tumor volume (V) was calculated using the formula: V = (ab^2)/2, with “a” representing the long diameter of the tumor and “b” representing the short diameter of the tumor. […] Tumor weight was used to calculate the tumor inhibition rate (Figure 1G).

[1] = Serum biochemical analysis and H&E histology of liver and kidney; format: in vivo, mice; details: 5 mg/kg every other day, 14 days
Protocol: In the biochemical and histological assays, 1n (5 mg/kg) and 1a (5 mg/kg) were administered to mice every other day, with the control group receiving an equivalent dose of saline. Following 14 days, mouse serum was collected for biochemical analysis, and organs were fixed for histological examination. […] In comparison, the liver tissues of the 1n-treated and control groups were normal.
Mice were euthanized, and liver and kidney tissues were collected and fixed in 10% neutral-buffered formalin for 48 h. The fixed tissues were processed for paraffin embedding, including dehydration in a graded ethanol series, clearing with xylene, and infiltration with molten paraffin wax. Paraffin blocks were sectioned into 4 μm slices using a rotary microtome, and the sections were mounted onto glass slides. The slides were dried at 60 °C for 4 h to ensure proper tissue adhesion. Following deparaffinization and rehydration, staining was performed according to the manufacturer’s instructions for the H&E staining kit (Solarbio, China). The sections were immersed in a hematoxylin solution for 3 min to stain the nuclei and then rinsed under running tap water for 1 minute to remove excess stain. Differentiation was achieved by briefly immersing the slides in a 1% hydrochloric acid-ethanol solution, followed by neutralization in 0.6% ammonia water until the nuclei appeared blue. Eosin staining was applied for 30 s to stain cytoplasmic and extracellular components, imparting a pink coloration. The slides were rinsed under running tap water for 30 s to remove excess eosin. Finally, the sections were dehydrated through a graded ethanol series, cleared with xylene, and coverslipped with a neutral resin mounting medium to preserve the stained tissues for microscopic examination.

[2] = test system: PANC-1 and MIA PaCa-2 pancreatic cancer cells; assay: Wound healing assay; format: cell-based; details: PANC-1 and MIA PaCa-2, 24 h, concentration-dependent, vs control
From the text: (§1) Figure S225. Compound 1a inhibited the migration, invasion and proliferation of pancreatic cancer cells. (A) The results of wound healing assays to investigate the effects of 1a on the migration ability against PANC-1 and MIA PaCa-2 pancreatic cancer cells. (B) The results of transwell assays to investigate the effects of 1a on the invasion ability. (C) Effects of 1a on the clonogenic ability. (D) EdU assays of 1a. (E) Western blot assays of 1a on biomarkers. Data are presented as mean ± SD, n […]
(§2) Approximately 50% of pancreatic cancer patients show distant metastases at the time […]
(§3) disease. To evaluate the inhibitory effects of majusculamide D (1a) on the migratory capabilities of pancreatic cancer cells (PANC-1 and MIA PaCa-2), wound healing assays […]
(§4) were performed (Figure S1A). […]
(§5) concentration-dependent manner. […]
(§6) inhibited the migration of these pancreatic cancer cells. Further validation with transwell […]
(§7) concentration-dependent manner compared to the control group (Figure S1B). Since cell migration and invasion are correlated with cancer metastasis, compound 1a may delay the progression of tumors’ local spread and distant metastasis by inhibiting the migration and invasion ability of pancreatic cancer cells. […]
(§8) Images were taken at 0 hour and 24 hours after treatment to record and analyzed by measuring the area of the wound at each time point using ImageJ. […]

[3] = test system: PANC-1 and MIA PaCa-2 pancreatic cancer cells; assay: Transwell invasion assay; format: cell-based; details: 24 h, concentration-dependent, vs control
From the text: as §1, §2, §3, §4, §5, §6, §7, §8

pancreatic cancer cells = test system: pancreatic cancer cells; parameters: method as in PMID 30673235; details: cited from earlier work

CCCCC(C)CC(C)C(=O)N(C)C(Cc1ccc(OC)cc1)C(=O)NC(C(=O)N(C)C(C(=O)N1CC(O)CC1C(=O)N1C(=O)C=CC1C)C(C)C)C(C)OC(C)=O (centres unmarked) [Compound 1a, Majusculamide D]
mortality rate among the mice (PANC-1 xenograft tumor; 5 mg/kg i.v. every other day, 24 days, n = 6): 50% | mice dead in treated group (PANC-1 xenograft tumor; 5 mg/kg i.v., xenografted mouse model, six mice per group): 3 mice | tumor inhibition rate (%) (PANC-1 xenograft tumor; calculated from tumor weight, day 24, 1a, 1c, 1n 5 mg/kg, gemcitabine 20 mg/kg i.v.): 64.8% | tumor weight (PANC-1 xenograft tumor; day 24, i.v. every other day, 1a, 1n 5 mg/kg, gemcitabine 20 mg/kg, mean ± SD): 0.393 ± 0.049 g | tumor volume (PANC-1 xenograft tumor; i.v. every other day for 24 days, 1a, 1n 5 mg/kg, gemcitabine 20 mg/kg, mean ± SD, n = 6): 353.0 ± 66.7 mm^3 | kidney tissue H&E histology [1]: no significant pathological differences | liver tissue H&E histology [1]: signs of hepatocyte necrosis and disruption of the hepatic cord structure | serum ALT and AST levels compared to the control group ([1]; n = 3): substantially elevated | scratch wound healing rate (migration) [2]: significantly reduced the scratch wound healing rate | cell invasion (transwell) [3]: significantly decreased cell invasion | selectivity against pancreatic cancer cells in vitro (pancreatic cancer cells): up to 4 × 10^3
